The values that follow come from patent US20260285853A1, “COMPOUNDS AND METHODS FOR MODULATING SPLICING” (REMIX THERAPEUTICS INC., priority 2023, published 2026).

Holding throughout (type): cell-based
In test [1] the test system is MYB mRNA. Kind of test: Gene panel canonical junction qPCR assay, decrease in CJ mRNA, Table 3. Particulars: decrease in CJ mRNA levels, canonical junction qPCR, gene panel. The essentials: (§1)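 A673 cells were plated, left to adhere for 24 h, then dosed; K562 cells were plated in 96- or 384-well format and dosed directly. Both were incubated 24 h at 37 °C with an 11-point 3-fold series (top 10 uM final). Canonical junction mRNA was then read by cDNA synthesis and qPCR.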
A general note: Quantitative PCR measures a nucleic acid by following its amplification.

The test system of test [2] is HTT mRNA. Described as above. Particulars: decrease in CJ mRNA levels, canonical junction qPCR, gene panel. The essentials:
as §1

Test [3] deals with HTT mRNA. Kind of test: Splicing RT-qPCR assay (THP), Table 2A. Conditions: Table 2A, THP; for AC50: HTT alternative junction (AJ) mRNA, read-out: HTT AJ (AC50, increase in alternative junction mRNA); for pIC50: HTT canonical junction (CJ) mRNA, read-out: HTT CJ (IC50, decrease in canonical junction mRNA).
Test [4] deals with SH-SY5Y (human neuroblastoma) cells. Kind of test: Cell viability, Cell Titer Glo 2.0 assay. Conditions: read-out: Viability SHSY5Y.3 GI50. A digest of the protocol: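 SH-SY5Y neuroblastoma cells are exposed to test compounds for 72 hours at 37 °C and 5% CO2, with final DMSO held at 0.1%. Cell viability is then measured with the CellTiter-Glo 2.0 assay.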
(In general: Cellular ATP, detected with luciferase, serves as a proxy for viable cell number.)

Test [5] deals with MYB mRNA. Kind of test: Splicing RT-qPCR assay (THP), Table 2A. Particulars: Table 2A, THP; for AC50: MYB alternative junction (AJ) mRNA, read-out: MYB AJ (AC50, increase in alternative junction mRNA); for pIC50: MYB canonical junction (CJ) mRNA, read-out: MYB CJ (IC50, decrease in canonical junction mRNA).

pIC50: −log10 of the molar value.

A word on the pIC50: it is the negative decadic logarithm of the IC50, by convention in mol/L. Broadly, the AC50 is the concentration giving half of the maximal activity seen. The term GI50 denotes the concentration that inhibits growth by half. On to `CCNC1CCN(c2ccc(C(=O)Nc3cn4cc(C)nc(C)c4n3)c3nc(OC)sc23)CC1` [Compound 670, N-(6,8-dimethyl-imidazo[1,2-a]-pyrazin-2-yl)-7-[4-(ethylamino)-1-piperidyl]-2-methoxy-1,3-benzothiazole-4-carboxamide], for which the pIC50 is below 5.00 in the test on MYB mRNA [1], 5.00 to 6.00 with HTT mRNA [2], 5.00 to 6.00 in the test with HTT mRNA [3] and below 5.00 in the test with MYB mRNA [5]. Further, the AC50 with HTT mRNA [3] and in the test with MYB mRNA [5] was above 10000 nM throughout. Further, in test [4], the GI50 was above 10000 nM.
As to `COc1nc2c(C(=O)Nc3cc4cn(C)nc4cc3OC)ccc(N3C[C@H](C)N[C@@H](C)C3)c2s1` [Compound 671, 7-[(3S,5S)-3,5-dimethyl-piperazin-1-yl]-2-methoxy-N-(6-methoxy-2-methyl-indazol-5-yl)-1,3-benzothiazole-4-carboxamide], the pIC50 is 6.00 to 7.00 with MYB mRNA [1], below 5.00 in the test with HTT mRNA [2], below 5.00 with HTT mRNA [3] and 6.00 to 7.00 in the test on MYB mRNA [5]. Also, the AC50 was 1000 to 10000 nM in the test with HTT mRNA [3] and 100 to 1000 nM in the test with MYB mRNA [5]. The GI50 in test [4] fell in the range of 1000 to 10000 nM.
`COc1nc2c(C(=O)Nc3cc(F)c4nn(C)cc4c3)ccc(N3C[C@H](C)N[C@@H](C)C3)c2s1` [Compound 675, 7-[(3S,5S)-3,5-dimethylpiperazin-1-yl]-N-(7-fluoro-2-methyl-indazol-5-yl)-2-methoxy-1,3-benzothiazole-4-carboxamide]: the pIC50 in the test on MYB mRNA [1], in the test on HTT mRNA [2], with HTT mRNA [3] and with MYB mRNA [5] was above 7.00 each time. The AC50 in the test with HTT mRNA [3] and with MYB mRNA [5] was below 100 nM each time. Besides, in test [4], the GI50 was below 100 nM.
`COc1nc2c(N3CCC(NC4CC4)CC3)ccc(C(=O)Nc3cc4cn(C)nc4cc3OC)c2o1` [Compound 679, 4-[4-(cyclopropylamino)-1-piperidyl]-2-methoxy-N-(6-methoxy-2-methyl-indazol-5-yl)-1,3-benzoxazole-7-carboxamide]: the pIC50 with MYB mRNA [1] is 6.00 to 7.00; in the test on HTT mRNA [2], 5.00 to 6.00; in the test on HTT mRNA [3], 5.00 to 6.00; in the test on MYB mRNA [5] it was 6.00 to 7.00. The AC50 was 1000 to 10000 nM in the test on HTT mRNA [3] and below 100 nM in the test with MYB mRNA [5]. For the same compound, the GI50 in test [4] is 1000 to 10000 nM.
Consider `COc1nc2c(N3CCC(NC4CC4)CC3)ccc(C(=O)Nc3cn4cc(C)nc(C)c4n3)c2o1` [Compound 680, 4-(4-(cyclopropylamino)-piperidin-1-yl)-N-(6,8-dimethylimidazo-[1,2-a]-pyrazin-2-yl)-2-methoxy-benzo[d]-oxazole-7-carboxamide], for which the pIC50 was 5.00 to 6.00 in the test on MYB mRNA [1], below 5.00 in the test on HTT mRNA [2], below 5.00 with HTT mRNA [3] and 5.00 to 6.00 in the test with MYB mRNA [5]. Further, the AC50 with HTT mRNA [3] was above 10000 nM; in the test with MYB mRNA [5] it was 1000 to 10000 nM. Further, the GI50 in test [4] was above 10000 nM.
Turning to `COc1nc2c(C(=O)Nc3cc4cn(C)nc4cc3OC)ccc(N3CCC(NC4CC4)CC3)c2o1` [Compound 681, 7-[4-(cyclopropylamino)-1-piperidyl]-2-methoxy-N-(6-methoxy-2-methyl-indazol-5-yl)-1,3-benzoxazole-4-carboxamide], the negative-log IC50 (pIC50) in the test on MYB mRNA [1], in the test with HTT mRNA [2], with HTT mRNA [3] and in the test on MYB mRNA [5] was 6.00 to 7.00 throughout. Further, the figures for the half-maximal activity concentration (AC50) in the test on HTT mRNA [3] and in the test with MYB mRNA [5] were 100 to 1000 nM and below 100 nM, respectively. The GI50 in test [4] was in the range of 100 to 1000 nM.
As for `COc1nc2c(C(=O)Nc3cc(F)c4nn(C)cc4c3)ccc(N3C[C@H](C)N[C@@H](C)C3)c2o1` [Compound 682, 7-[(3S,5S)-3,5-dimethylpiperazin-1-yl]-N-(7-fluoro-2-methyl-indazol-5-yl)-2-methoxy-1,3-benzoxazole-4-carboxamide], the negative-log IC50 (pIC50) is above 7.00 in the test on MYB mRNA [1], 6.00 to 7.00 in the test with HTT mRNA [2], 6.00 to 7.00 in the test with HTT mRNA [3] and above 7.00 in the test on MYB mRNA [5]. Further, the AC50 in the test on HTT mRNA [3] was 100 to 1000 nM; with MYB mRNA [5], below 100 nM. Moreover, the GI50 in test [4] was below 100 nM.
As for `CCNC1C(C)CN(c2ccc(C(=O)Nc3cn4cc(C)nc(C)c4n3)c3nn(C)cc23)CC1C` (centres unmarked) [Compound 686], the pIC50 in the test on MYB mRNA [1], in the test on HTT mRNA [2], with HTT mRNA [3] and in the test with MYB mRNA [5] was below 5.00 throughout. The AC50 in the test on HTT mRNA [3] and in the test on MYB mRNA [5] was above 10000 nM throughout. Besides, the GI50 in test [4] is above 10000 nM.
With `CCNC1C(C)CN(c2ccc(C(=O)Nc3cc4cn(C)nc4cc3OC)c3nn(C)cc23)CC1C` (centres unmarked) [Compound 687], the pIC50 with MYB mRNA [1] is 5.00 to 6.00; in the test on HTT mRNA [2], below 5.00; in the test with HTT mRNA [3] it was below 5.00; in the test with MYB mRNA [5], 5.00 to 6.00. Moreover, the values for the AC50 in the test on HTT mRNA [3] and with MYB mRNA [5] were above 10000 nM and 1000 to 10000 nM, respectively. Also, the 50% growth inhibitory concentration (GI50) in test [4] was above 10000 nM.
As to `COc1cc2c(N3CCC(NC4CC4)CC3)ccc(C(=O)Nc3cn4cc(C)nc4c(F)c3OC)n2n1` [Compound 688, 4-[4-(cyclopropylamino)-1-piperidyl]-N-(8-fluoro-7-methoxy-2-methyl-imidazo[1,2-a]pyridin-6-yl)-2-methoxy-pyrazolo[1,5-a]pyridine-7-carboxamide], the pIC50 in the test on MYB mRNA [1], in the test with HTT mRNA [2], in the test with HTT mRNA [3] and in the test with MYB mRNA [5] was above 7.00 throughout. Moreover, the AC50 was 100 to 1000 nM with HTT mRNA [3] and below 100 nM in the test on MYB mRNA [5]. Further, the GI50 in test [4] is below 100 nM.
Consider `COc1cc2c(N3CCC(NC4CC4)CC3)ccc(C(=O)Nc3cc(F)c4nc(C)cn4c3)n2n1` [Compound 689, 4-[4-(cyclopropylamino)-1-piperidyl]-N-(8-fluoro-2-methyl-imidazo[1,2-a]pyridin-6-yl)-2-methoxy-pyrazolo[1,5-a]pyridine-7-carboxamide], for which the pIC50 in the test with MYB mRNA [1], in the test with HTT mRNA [2], in the test with HTT mRNA [3] and with MYB mRNA [5] was above 7.00 throughout. The AC50 with HTT mRNA [3] is 100 to 1000 nM; with MYB mRNA [5] it was below 100 nM. Also, in test [4], the GI50 was below 100 nM.
As for `COc1nc2c(C(=O)Nc3cc(F)c4nc(C)cn4c3)ccc(N3CCC(NC4CC4)CC3)c2o1` [Compound 690, 7-[4-(cyclopropylamino)-1-piperidyl]-N-(8-fluoro-2-methyl-imidazo[1,2-a]pyridin-6-yl)-2-methoxy-1,3-benzoxazole-4-carboxamide], the pIC50 in the test on MYB mRNA [1], in the test with HTT mRNA [2], in the test with HTT mRNA [3] and in the test with MYB mRNA [5] was above 7.00 in each case. For the same compound, the AC50 with HTT mRNA [3] was 100 to 1000 nM; with MYB mRNA [5], below 100 nM. Besides, the GI50 in test [4] was 100 to 1000 nM.
In the case of `COc1nc2c(N3C[C@H](C)N[C@@H](C)C3)ccc(C(=O)Nc3cc(F)c4nn(C)cc4c3)c2o1` [Compound 691, 4-[(3S,5S)-3,5-dimethylpiperazin-1-yl]-N-(7-fluoro-2-methyl-indazol-5-yl)-2-methoxy-1,3-benzoxazole-7-carboxamide], the negative-log IC50 (pIC50) is 6.00 to 7.00 in the test on MYB mRNA [1], below 5.00 with HTT mRNA [2], below 5.00 with HTT mRNA [3] and 6.00 to 7.00 with MYB mRNA [5]. Besides, the AC50 with HTT mRNA [3] is above 10000 nM; in the test on MYB mRNA [5] it was 100 to 1000 nM. For the same compound, the GI50 in test [4] is 1000 to 10000 nM.
As to `CCNC1CCN(c2cc(F)c(C(=O)Nc3cn4ccnc4nc3OC)c3nn(C)cc23)CC1` [Compound 692, 4-[4-(ethylamino)-1-piperidyl]-6-fluoro-N-(7-methoxyimidazo[1,2-a]pyrimidin-6-yl)-2-methyl-indazole-7-carboxamide], the negative-log IC50 (pIC50) was above 7.00 with MYB mRNA [1], 5.00 to 6.00 with HTT mRNA [2], 5.00 to 6.00 in the test on HTT mRNA [3] and above 7.00 in the test with MYB mRNA [5]. Besides, the AC50 is 100 to 1000 nM in the test on HTT mRNA [3] and below 100 nM in the test with MYB mRNA [5]. Also, the GI50 in test [4] is 1000 to 10000 nM.
Consider `Cc1cn2cc(NC(=O)c3ccc(N4CCC(NC5CC5)CC4)c4cn(C)nc34)nc2c(CNS(C)(=O)=O)n1` [Compound 694, 4-(4-(cyclopropylamino)piperidin-1-yl)-2-methyl-N-(6-methyl-8-(methylsulfonamidomethyl)imidazo[1,2-a]pyrazin-2-yl)-2H-indazole-7-carboxamide 2,2,2-trifluoroacetate], for which the pIC50 in the test with MYB mRNA [1], with HTT mRNA [2], in the test with HTT mRNA [3] and in the test with MYB mRNA [5] was below 5.00 throughout. Besides, the AC50 with HTT mRNA [3] and in the test with MYB mRNA [5] was above 10000 nM in each case. Also, the GI50 in test [4] is above 10000 nM.
For `COc1cc2c(N3CCC(NC4CC4)CC3)ccc(C(=O)Nc3cc(C)c4nc(C)cn4n3)n2n1` [Compound 695, 4-[4-(cyclopropylamino)-1-piperidyl]-N-(2,8-dimethylimidazo[1,2-b]pyridazin-6-yl)-2-methoxy-pyrazolo[1,5-a]pyridine-7-carboxamide], the pIC50 in the test with MYB mRNA [1], in the test with HTT mRNA [2], in the test on HTT mRNA [3] and in the test with MYB mRNA [5] was 5.00 to 6.00 in each case. For the same compound, the half-maximal activity concentration (AC50) in the test with HTT mRNA [3] and in the test on MYB mRNA [5] was 1000 to 10000 nM each time. Moreover, in test [4], the GI50 lay in the range of 1000 to 10000 nM.
With `COc1cc2nn(C)cc2cc1NC(=O)c1cc(C)c(N2CCC(NC3CC3)CC2)c2cn(C)nc12` [Compound 696], the pIC50 in the test on MYB mRNA [1], in the test with HTT mRNA [2], in the test on HTT mRNA [3] and in the test with MYB mRNA [5] was below 5.00 in each case. Further, the AC50 in the test with HTT mRNA [3] and in the test with MYB mRNA [5] was above 10000 nM each time. In addition, in test [4], the GI50 was 1000 to 10000 nM.
